One assay deals with HL60. Nature of the assay: Apoptosis (sub-G1 DNA by FACS, caspase-3 activation) in HL60 leukemic cells. The format is cell-based. How it is done:
The myeloid leukemic cell lines HL60, NB60, NB4, U937, K562 and KG1a were all grown in RPMI 1640 medium (Life Technologies, Paisley, United Kingdom) supplemented with 10% v/v fetal calf serum (Sear Laboratories International Crawley, United Kingdom), 100 U/mL penicillin, and 100 μg/mL streptomycin (Sigma Aldrich, Poole, United Kingdom) at 37° C. and 5% v/v CO2. AML blasts were isolated from patient bone marrow aspirates and peripheral blood of eight patients at diagnosis or relapse. Patients were not receiving AML therapy at time of sampling. Blasts were isolated by Ficoll density centrifugation and were cultured in serum-free insulin transferrin selenium-positive (ITS+) medium (Life Technologies) containing 300 ng/mL stem cell factor (SCF) and 10 ng/mL interleukin 3 (IL3; R and D Systems, Abingdon, United Kingdom) and antibiotics. […] Normal myeloblasts were isolated from cord blood or adult mobilized peripheral blood. Briefly, CD34^+ cells were indirectly selected from the mononuclear cell preparations using antibody-coated magnetic beads (Miltenyi Biotec, United Kingdom).
To determine the effects of ingenol-3-angelate (PEP005), cells were incubated for up to 5 days with medium alone or PEP005 at a range of concentrations from 0.2 nM to 20 μM. PEP005 was extracted from Euphorbia peplus and supplied as a 98.5% pure preparation by Peplin Limited (Brisbane, Australia) as a dry pellet and was made up to a stock of […] in acetone on a weekly basis. Stocks were stored at 4° C. and diluted into medium when required. Final acetone concentration was never more than 0.1% v/v. Apoptosis and differentiation were assessed after 1 to 5 days.
A general note: In flow cytometry, cells or beads pass a laser one at a time.

The target of a further assay is T1, PKC-δ (Homo sapiens, UniProt Q05655).
T1 construct: endogenous in cells; host or cells: HL60
Nature of the assay: PKC-δ activation by translocation (cell fractionation, Western blotting) in HL60 cells. The format is cell-based. The note with it: 10 minutes. How it is done:
PKC translocates from the soluble to the particulate fraction of cells when activated and this method was used to assess activation of PKC-δ by PEP005 and PMA. Briefly, cells were incubated for 10 minutes in medium alone or 20 nM PEP005 or 20 nM PMA, washed twice in phosphate buffered saline (PBS) and then lysed by homogenization in hypotonic lysis buffer in the absence of detergent. Lysis was checked using trypan blue uptake. Nuclei were isolated by centrifugation at 1000 g for 10 minutes. Centrifugation at 100,000 g for 45 minutes at 4° C. was used to isolate the cytosol (supernatant) and cell membrane (pellet) fractions. All were taken up in SDS sample buffer and analyzed for PKC-δ by Western blotting.
On the technique in general: A western blot detects proteins with antibodies after separation by electrophoresis.

T1 sequence (Q05655 whole entry): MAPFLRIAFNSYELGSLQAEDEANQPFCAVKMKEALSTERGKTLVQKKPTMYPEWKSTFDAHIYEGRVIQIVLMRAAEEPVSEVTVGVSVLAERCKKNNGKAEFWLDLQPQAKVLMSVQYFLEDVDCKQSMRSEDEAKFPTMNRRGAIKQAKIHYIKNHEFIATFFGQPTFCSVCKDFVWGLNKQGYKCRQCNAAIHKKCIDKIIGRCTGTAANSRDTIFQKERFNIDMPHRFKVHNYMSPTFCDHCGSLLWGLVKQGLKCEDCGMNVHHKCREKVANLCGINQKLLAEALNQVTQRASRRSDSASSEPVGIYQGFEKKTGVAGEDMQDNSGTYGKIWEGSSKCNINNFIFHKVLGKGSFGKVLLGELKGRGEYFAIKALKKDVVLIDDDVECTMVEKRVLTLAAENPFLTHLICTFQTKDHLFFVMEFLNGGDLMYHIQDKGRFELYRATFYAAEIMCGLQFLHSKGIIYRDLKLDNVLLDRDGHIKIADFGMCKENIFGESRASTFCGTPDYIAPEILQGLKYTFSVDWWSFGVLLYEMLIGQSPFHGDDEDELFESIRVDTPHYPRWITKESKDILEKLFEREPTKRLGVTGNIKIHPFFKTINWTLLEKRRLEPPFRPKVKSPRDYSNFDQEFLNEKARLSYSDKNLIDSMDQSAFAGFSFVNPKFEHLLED

With `C/C=C(/C)C(=O)O[C@H]1C(C)=C[C@]23C(=O)[C@@H](C=C(CO)[C@@H](O)[C@]12O)[C@H]1[C@@H](C[C@H]3C)C1(C)C` [PEP005, ingenol-3-angelate], in the assay with HL60 (after 3 days of treatment, PMA 20 nM), the “apoptosis (caspase-3 activity)” value is reported as “apoptosis was the dominant effect”. For the same molecule, the “PEP005 concentration with optimal effect, apoptosis” value in the assay on HL60 (sub-G1 DNA by FACS, treated 5 days) was determined as 20 nM. The “fraction of cells entering apoptosis (kinetic study)” value with HL60 (within the first 1 to 2 days of treatment) was “up to half of the cells entering apoptosis”. Moreover, the “site of initial PKC-δ translocation” value at PKC-δ (20 nM PEP005 or 20 nM PMA) was “to the nuclear and cell membranes”. Besides, the “activation of PKC-δ (translocation from cytosol to membrane fraction)” value at PKC-δ (20 nM) is listed as “induced activation of PKC-δ”.

These data come from patent US20080069809A1, “Compositions and methods for the diagnosis and treatment of cancer” (priority 2006, published 2008).
